These results are taken from ChEMBL document CHEMBL1201862, “PubChem BioAssay data set” (2004).

Test systems include HOP-62; CCRF-CEM; SK-MEL-5; SNB-75; UO-31; HOP-92; EKVX; OVCAR-3; SNB-19; SF-539; HL-60; Malme-3M; NCI-H460; HCC 2998; OVCAR-8; K562; MDA-N; PC-3; MCF7.
Test in all cases: inhibition of tumour cell growth, NCI panel, 48 h

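Results reflect a 48-hour exposure of cells in 96-well plates to compound at five concentrations. The concentration for 50% growth inhibition is given as GI50.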 Active and inactive are the calls of the source. Cut-off read from the data, not from the text of the source: active = GI50 up to about 1.1 µM and inactive = higher.

For `O=C(/C=C1/NC(=O)CS1)Nc1ccccc1`, the GI50 in the experiment with HOP-62 is > 100 µM (inactive); in the experiment on CCRF-CEM, > 100 µM (inactive); with SK-MEL-5, > 100 µM (inactive); in the experiment on SNB-75, 50 µM (inactive); with UO-31 it was > 100 µM (inactive); with HOP-92, > 100 µM (inactive). Further, the GI50 is > 100 µM (inactive) in the experiment with EKVX; > 100 µM (inactive) in the experiment on OVCAR-3; > 100 µM (inactive) with SNB-19; > 100 µM (inactive) in the experiment on SF-539; > 100 µM (inactive) with HL-60; 30.8 µM (inactive) with Malme-3M. In addition, the GI50 in the experiment with NCI-H460, in the experiment with HCC 2998, in the experiment on OVCAR-8 and in the experiment with K562 was > 100 µM (inactive) in each case.

Turning to `CC(=O)NC(ON1C(=O)COc2ccccc21)C(Cl)(Cl)Cl` (stereo not drawn), the GI50 in the experiment on HOP-62, in the experiment with SNB-75, with UO-31, with HOP-92, with OVCAR-3 and in the experiment on SNB-19 was > 100 µM (inactive) in each case. Further, the GI50 in the experiment on SF-539, in the experiment with HL-60, in the experiment with Malme-3M, in the experiment with NCI-H460, in the experiment on HCC 2998 and with OVCAR-8 was > 100 µM (inactive) each time. Also, the GI50 in the experiment with K562 was > 100 µM (inactive).

Consider `CSCCCN(CCCSC)CCCSC`, for which the GI50 in the experiment on HOP-62 was > 100 µM (inactive); with CCRF-CEM it was 35.5 µM (inactive); in the experiment on SK-MEL-5, > 100 µM (inactive); in the experiment with SNB-75, 48.5 µM (inactive); with UO-31, > 100 µM (inactive); in the experiment on EKVX, > 100 µM (inactive). The GI50 with MDA-N, in the experiment on OVCAR-3, in the experiment with PC-3, in the experiment with SNB-19, with SF-539 and with MCF7 was > 100 µM (inactive) each time. Also, the GI50 with HL-60 is 13.5 µM (inactive); with NCI-H460, > 100 µM (inactive); in the experiment on HCC 2998, > 100 µM (inactive); with OVCAR-8, > 100 µM (inactive); with K562, 97.5 µM (inactive).

Take `CCOc1ccc(/N=C/c2cccc3cccnc23)cc1`: the GI50 in the experiment with HOP-62 is > 100 µM (inactive); in the experiment with CCRF-CEM, 62.5 µM (inactive); in the experiment on SK-MEL-5, > 100 µM (inactive); in the experiment with SNB-75, > 100 µM (inactive); in the experiment with HOP-92 it was > 100 µM (inactive); with EKVX it was > 100 µM (inactive). The GI50 was > 100 µM (inactive) in the experiment on OVCAR-3; > 100 µM (inactive) in the experiment on SNB-19; > 100 µM (inactive) in the experiment on SF-539; 25.6 µM (inactive) with HL-60; > 100 µM (inactive) with Malme-3M; > 100 µM (inactive) in the experiment with NCI-H460. In addition, the GI50 is > 100 µM (inactive) in the experiment on HCC 2998, > 100 µM (inactive) in the experiment with OVCAR-8 and 20 µM (inactive) in the experiment with K562.

As to `COc1ccc(NC(=O)NS(=O)(=O)c2ccc(C)cc2)nn1`, the GI50 in the experiment with HOP-62, with CCRF-CEM, in the experiment with SK-MEL-5, in the experiment with SNB-75, in the experiment on UO-31 and in the experiment with HOP-92 was > 100 µM (inactive) in each case. Moreover, the GI50 with EKVX, in the experiment with OVCAR-3, with SNB-19, in the experiment on SF-539, in the experiment with HL-60 and with Malme-3M was > 100 µM (inactive) throughout. Further, the GI50 in the experiment on NCI-H460, in the experiment with HCC 2998, in the experiment on OVCAR-8 and in the experiment with K562 was > 100 µM (inactive) each time.

In the case of `CCOC(=O)c1c(N=P(c2ccccc2)(c2ccccc2)c2ccccc2)nnc(-c2ccccc2)c1-c1ccccc1`, the GI50 with HOP-62 is > 100 µM (inactive); with CCRF-CEM, > 100 µM (inactive); in the experiment with SK-MEL-5, > 100 µM (inactive); in the experiment with SNB-75 it was 6.68 µM (inactive); in the experiment with UO-31, 1.66 µM (inactive); in the experiment with HOP-92 it was 5.52 µM (inactive). Besides, the GI50 is > 100 µM (inactive) with EKVX; 92.5 µM (inactive) in the experiment on MDA-N; > 100 µM (inactive) in the experiment with OVCAR-3; > 100 µM (inactive) in the experiment with PC-3; 71.3 µM (inactive) with SNB-19; > 100 µM (inactive) with SF-539. The GI50 with MCF7, in the experiment on HL-60, with Malme-3M, in the experiment on NCI-H460, with HCC 2998 and with OVCAR-8 was > 100 µM (inactive) throughout. Further, in the experiment with K562, the GI50 was > 100 µM (inactive).

As to `COC(=O)c1ccc(C(=O)OC)c2nc3cc(C)ccc3nc12`, the GI50 with HOP-62, with CCRF-CEM, with SK-MEL-5, in the experiment on SNB-75, in the experiment on UO-31 and with HOP-92 was > 100 µM (inactive) throughout. Further, the GI50 in the experiment with EKVX, in the experiment with OVCAR-3, in the experiment with SNB-19, in the experiment on SF-539, with HL-60 and in the experiment with Malme-3M was > 100 µM (inactive) in each case. The GI50 in the experiment with NCI-H460, in the experiment with HCC 2998, in the experiment with OVCAR-8 and in the experiment with K562 was > 100 µM (inactive) throughout.

In the case of `CC1CC(c2ccccc2)=Nc2ccccc2S1(=O)=O` (stereo not drawn), the GI50 was 20.3 µM (inactive) in the experiment with HOP-62; 19.7 µM (inactive) in the experiment with CCRF-CEM; 17.9 µM (inactive) in the experiment on SK-MEL-5; 19.2 µM (inactive) with SNB-75; 15.6 µM (inactive) in the experiment with UO-31; 27.9 µM (inactive) in the experiment with HOP-92. The GI50 is 20.4 µM (inactive) in the experiment on EKVX; 18.5 µM (inactive) in the experiment on OVCAR-3; 14.3 µM (inactive) with SNB-19; 18.4 µM (inactive) in the experiment with SF-539; 21 µM (inactive) in the experiment on HL-60; 17.9 µM (inactive) in the experiment with Malme-3M. The GI50 in the experiment on NCI-H460 is 16.3 µM (inactive); in the experiment on HCC 2998, 5.2 µM (inactive); with OVCAR-8 it was 21.1 µM (inactive); with K562, 19.4 µM (inactive).

Take `Nc1c(C(=O)c2ccc(Cl)cc2)[nH]c(NCc2ccccc2)c1C(=S)Nc1ccccc1`: the GI50 with HOP-62 is 3.67 µM (inactive); with CCRF-CEM it was 2.44 µM (inactive); in the experiment with SNB-75 it was 1.71 µM (inactive); with UO-31, 1.58 µM (inactive); with HOP-92, 2.84 µM (inactive); with EKVX it was 7.21 µM (inactive). The GI50 in the experiment on MDA-N is 1.73 µM (inactive); in the experiment with OVCAR-3, 6.65 µM (inactive); with PC-3, 5.31 µM (inactive); in the experiment with SNB-19, 4.07 µM (inactive); in the experiment with SF-539, 4.62 µM (inactive); with MCF7 it was 1.58 µM (inactive). In addition, the GI50 in the experiment with HL-60 is 3.93 µM (inactive); in the experiment on NCI-H460, 1.77 µM (inactive); in the experiment on HCC 2998, 0.372 µM (active); with OVCAR-8, 1.77 µM (inactive); in the experiment on K562 it was 2.08 µM (inactive).

For the compound `Cc1ccc(S(=O)(=O)SCc2ccccc2)cc1`, the GI50 is 49.7 µM (inactive) in the experiment on HOP-62; 2.33 µM (inactive) in the experiment with CCRF-CEM; 25.6 µM (inactive) in the experiment with SK-MEL-5; > 49.3 µM (inactive) in the experiment with SNB-75; > 92.5 µM (inactive) in the experiment on UO-31; 22.7 µM (inactive) in the experiment with HOP-92. In addition, the GI50 in the experiment with EKVX is 43.8 µM (inactive); in the experiment on OVCAR-3, 20.8 µM (inactive); with SNB-19, 29.7 µM (inactive); with SF-539, 23.4 µM (inactive); in the experiment on HL-60 it was 2.44 µM (inactive); in the experiment with Malme-3M it was 24.4 µM (inactive). In addition, the GI50 was 28.5 µM (inactive) in the experiment with NCI-H460, 24.2 µM (inactive) with HCC 2998, 15.3 µM (inactive) with OVCAR-8 and 4.57 µM (inactive) in the experiment with K562.

Take `CC(C)N1C(C)[C@@H](c2ccccc2)O[P@]1(=O)CC1=CCCCC1` (stereo partly drawn): the GI50 was > 100 µM (inactive) in the experiment with HOP-62; 35.6 µM (inactive) in the experiment with CCRF-CEM; 45.2 µM (inactive) with SK-MEL-5; > 100 µM (inactive) in the experiment on SNB-75; 74 µM (inactive) with UO-31; 42.2 µM (inactive) in the experiment on HOP-92. Also, the GI50 in the experiment with EKVX is 85.9 µM (inactive); with OVCAR-3, 62.7 µM (inactive); in the experiment with SNB-19 it was > 100 µM (inactive); in the experiment with SF-539, > 100 µM (inactive); in the experiment on HL-60, 22.4 µM (inactive); in the experiment on Malme-3M it was > 100 µM (inactive). The GI50 was 87.1 µM (inactive) in the experiment with NCI-H460, 99.3 µM (inactive) in the experiment with HCC 2998, > 100 µM (inactive) in the experiment with OVCAR-8 and 49.3 µM (inactive) with K562.

On to `C[C@]12CCC[C@H](OC=O)C1(O)C[C@H](C(=O)O)CC2` (stereo partly drawn), for which the GI50 in the experiment with HOP-62, with CCRF-CEM, in the experiment with SK-MEL-5, in the experiment on SNB-75, with UO-31 and in the experiment with HOP-92 was > 100 µM (inactive) in each case. In addition, the GI50 in the experiment with EKVX is 19.8 µM (inactive); in the experiment with OVCAR-3, > 100 µM (inactive); in the experiment on SNB-19 it was > 100 µM (inactive); in the experiment with SF-539 it was > 100 µM (inactive); in the experiment with HL-60, > 100 µM (inactive); with Malme-3M, > 100 µM (inactive). Further, the GI50 in the experiment on NCI-H460, in the experiment with HCC 2998, in the experiment on OVCAR-8 and in the experiment with K562 was > 100 µM (inactive) in each case.
